Laboratory results reported in the NIST ThermoML archive (doi:10.1021/je900355h).
± gives the expanded uncertainty stated by the source.

Settings: Crystal; visual observation

Work on `F[P-](F)(F)(F)(F)F.F[P-](F)(F)(F)(F)F.c1cc[n+](CCCCC[n+]2ccccc2)cc1` [1,1'-(1,5-pentanediyl)bis-pyridinium hexafluorophosphate] yielded a Normal melting temperature of 198.40 ± 1.2 °C.
